Measurements as given in patent US7635702B2, “Imidazole compounds as transforming growth factor (TGF) inhibitors” (Pfizer Inc., priority 2002, dated 2009).

Molecular target: T1, ALK-5 (TβRI) (Homo sapiens, UniProt P36897)
T1 construct: using either the kinase domain of ALK5 with Smad3 as substrate; GST
T1 sequence (P36897 205-495 limits assumed): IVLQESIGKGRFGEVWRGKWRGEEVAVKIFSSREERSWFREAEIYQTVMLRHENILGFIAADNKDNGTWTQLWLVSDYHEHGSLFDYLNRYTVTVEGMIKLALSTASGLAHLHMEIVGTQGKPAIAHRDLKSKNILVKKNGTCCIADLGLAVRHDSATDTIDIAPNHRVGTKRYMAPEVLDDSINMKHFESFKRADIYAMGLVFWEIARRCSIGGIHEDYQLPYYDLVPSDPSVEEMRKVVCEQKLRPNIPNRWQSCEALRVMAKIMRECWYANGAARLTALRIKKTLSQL
Assay: ALK-5 (TβRI) kinase assay
Assay type: biochemical
Details: GST-ALK5 with GST-Smad3 substrate, 33P-ATP
Procedure: The kinase assays were performed with 65 nM GST-ALK5 and 84 nM GST-Smad3 in 50 mM HEPES, 5 mM MgCl2, 1 mM CaCl2, 1 mM dithiothreitol, and 3_M ATP. Reactions were incubated with 0.5_Ci of [33 P]_ATP for 3 h at 30° C. Phosphorylated protein was captured on P-81 paper (Whatman, Maidstone, England), washed with 0.5% phosphoric acid, and counted by liquid scintillation. Alternatively, Smad3 or Smad1 protein was also coated onto FlashPlate Sterile Basic Microplates (PerkinElmer Life Sciences, Boston, Mass.). Kinase assays were then performed in Flash-Plates with same assay conditions using either the kinase domain of ALK5 with Smad3 as substrate or the kinase domain of ALK6 (BMP receptor) with Smad1 as substrate. Plates were washed three times with phosphate buffer and counted by TopCount (Packard Bio-science, Meriden, Conn.). (Laping, N.J. et al. Molecular Pharmacology 62:58-64 (2002)).

Cc1cccc(-c2[nH]cnc2-c2ccc3nnn(C)c3c2)n1 [Example 12, 1-Methyl-6-[5-(6-methyl-pyridin-2-yl)-1H-imidazol-4-yl]-1H-benzotriazole]
IC50: ~0.0445 µM
